This note sets out measurements from the supplement of paper PMC6723410.

One assay deals with GUMC-403. Kind of assay: viability at highest tested concentration (max response) relative to DMSO (% of DMSO control); higher = less cytotoxic. Conditions: library / dose series: MIPE library, 11-point 1:3 dilution; top concentration 46.1 µM; 48 h. Put shortly: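 GUMC-403 papilloma cells, derived from a patient and expanded by conditional reprogramming, were dispensed at 700/well into 1536-well plates in 5 μL F + Y medium. A pin tool delivered 23 nL of each compound across an 11-point 1:3 dilution series for 48 h. CellTiter-Glo luminescence, read on a ViewLux, was normalised so that vehicle wells equalled 100% and empty wells 0%. Values report viability at the highest tested concentration relative to vehicle control.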
As to `COc1cc([C@@H]2c3cc4c(cc3[C@@H](O[C@@H]3O[C@@H]5CO[C@@H](C)O[C@H]5[C@H](O)[C@H]3O)[C@H]3COC(=O)[C@H]23)OCO4)cc(OC)c1O`, the viability is 124.

`N[C@@H]1C[C@H]1c1ccccc1` displayed a viability of 108.

On to `CN(c1nccc(=O)[nH]1)C1CCN(c2nc3ccccc3n2Cc2ccc(F)cc2)CC1`, for which the viability is 97.4.

In turn, `COC(=O)Nc1nc2cc(Sc3ccccc3)ccc2[nH]1` had a viability of 95.8.

The molecule `O=C(NNC(=O)c1ccc(CN[S+](=O)([O-])c2ccc(F)c(Cl)c2)cc1)c1ccccc1` registered a viability of 129.

In the case of `CCCCN(CCCC)CC(O)c1cc(Cl)cc2c1-c1ccc(Cl)cc1/C2=C/c1ccc(Cl)cc1` (stereo not drawn), the viability was found to be 104.

Take `COc1cc(Oc2ccnc3cc(OC)c(OC)cc23)ccc1NC(=O)NC(C)c1nccs1` (stereo not drawn): the viability stood at 110.

As to `COc1ccc(Cn2ccc3ccc(C(=O)NO)cc32)cc1`, the viability worked out at 108.

Molecule `c1cc(-c2cnn3cc(-c4ccc(OCCN5CCCCC5)cc4)cnc23)ccn1` had a viability of 48.4.

In the case of `Cc1cccc(C)c1NC(=O)CN1CCCC1=O`, the viability is 106.

For `O=C(CCCCCCC(=O)Nc1cccnc1)NO`, the viability is 111.

Molecule `O=C(C[C@@H]1C/C=C\CCC(=O)O[C@H](c2ccccc2)CNC1=O)NCc1ccc(Cl)cc1` registered a viability of 97.5.

For the molecule `CC(C)(C)NC(=O)Nc1cccc(Nc2ncc(F)c(NC(C)(C)CO)n2)c1`, the viability worked out at 121.

With `Cn1c(Nc2ccc(C(F)(F)F)cc2)nc2cc(Oc3ccnc(-c4nc(C(F)(F)F)c[nH]4)c3)ccc21`, the viability stood at 92.4.

`COc1cc(C(=O)NC2CCN(C)CC2)ccc1Nc1ncc2c(n1)N(C1CCCC1)CCC(=O)N2C(C)C`: the viability turned out to be 93.5.

On to `CN1CCN(CCCN2c3ccccc3Sc3ccc(C(F)(F)F)cc32)CC1`, for which the viability came to 79.1.

Regarding `CCNC(=O)Nc1ccc2ncc(Nc3ccc(C)cc3)nc2n1`, the viability worked out at 108.

For `CN(C)CCc1c[nH]c2ccc(Cn3cncn3)cc12`, the viability was 100.

As for `O=C(C=CC#Cc1cccc(N[S+](=O)([O-])c2ccccc2)c1)NO`, the viability came out at 108.

Molecule `C[C@@H]1CN[C@H]2[C@@H](C)[C@@]\3(CC[C@H]\4[C@@H]5C/C=C6/C[C@@H](O)CC[C@]6(C)[C@H]5CC4=C3C)O[C@@H]2C1` came in with a viability of 116.

Consider `COc1cc2c(cc1O)CCC1C2CC[C@@]2(C)C1CC[C@@H]2O` (stereo partly drawn), for which the viability turned out to be 101.

The molecule `CCN1\C=C(\C(O)=O)C(=O)C2=CC=C(C)N=C12` yielded a viability of 92.

As to `N\C1=N\C2=C(N=C[N]2COCCO)C(=O)N1`, the viability turned out to be 117.

The molecule `COc1cc2c(cc1OC)CN(CCc1ccc(NC(=O)c3cc(OC)c(OC)cc3NC(=O)c3cnc4ccccc4c3)cc1)CC2` yielded a viability of 100.

`OC(c1cc(C(F)(F)F)nc2c(C(F)(F)F)cccc12)C1CCCCN1` (stereo not drawn) displayed a viability of 97.9.

Molecule `CC(C)OC(=O)/C1=C/N(CC(C)(C)C2=C1[NH]C3=CC=CC=C23)C(=O)C4=CC=C(F)C(=C4)F` showed a viability of 107.

Consider `NC(CO)(CO)CCc1ccc(Sc2cccc(OCc3ccccc3)c2)cc1Cl`, for which the viability worked out at 118.

Consider `C[C@@H](NC(=O)c1ncnc(N)c1Cl)c1ncc(C(=O)Nc2cc(C(F)(F)F)c(Cl)cn2)s1`, for which the viability was 109.

With `CCC(C)N(C)C(=O)c1cc2ccccc2c(-c2ccccc2Cl)n1` (stereo not drawn), the viability was 96.7.

`Nc1nnc(-c2cccc(Cl)c2Cl)c(N)n1` yielded a viability of 82.5.

Molecule `O=C(Nc1cc2cc[nH]c2cn1)c1ccccc1` came in with a viability of 55.2.

Take `COC1=CC2=C(C=C1CC3=C(F)C(=CC=C3)Cl)C(=O)\C(=C/N2[C@H](CO)C(C)C)C(O)=O`: the viability was 124.

Turning to `CN(Cc1cnc2nc(N)nc(N)c2n1)c1ccc(C(=O)N[C@@H](CCC(=O)O)C(=O)O)cc1`, the viability is 111.

The molecule `C[S+]([O-])(=O)C1=CC=C(C=C1)C/2=C(/C(=O)OC2)C3=CC=CC=C3` came in with a viability of 122.

For the molecule `c1cc(N[C@@H]2CCNC2)nc(-c2cnc3ccc(-c4cn[nH]c4)cn23)c1`, the viability is 122.

As for `OCc1ccc(-c2ccc(-c3ccc(CO)s3)o2)s1`, the viability is 117.

Take `COc1ccc(C(CN(C)C)C2(O)CCCCC2)cc1` (stereo not drawn): the viability is 100.

Regarding `COCCCOc1cc(C[C@@H](C[C@H](N)[C@@H](O)C[C@H](C(=O)NCC(C)(C)C(N)=O)C(C)C)C(C)C)ccc1OC`, the viability came out at 130.

In turn, `Cc1ccccc1C(=O)c1ccc(Nc2ccc(Br)cc2N)cc1Cl` registered a viability of 103.

On to `COc1cc([C@@H]2c3cc4c(cc3[C@@H](O[C@@H]3O[C@@H]5CO[C@@H](c6cccs6)O[C@H]5[C@H](O)[C@H]3O)[C@H]3COC(=O)[C@H]23)OCO4)cc(OC)c1O`, for which the viability was 56.7.

In turn, `O=C(N[C@H](CO)[C@H](O)c1ccc([N+](=O)[O-])cc1)C(Cl)Cl` returned a viability of 130.

With `C[C@H](CCC(=O)O)[C@H]1CC[C@H]2[C@@H]3[C@@H](O)C[C@@H]4C[C@H](O)CC[C@]4(C)[C@H]3CC[C@]12C`, the viability is 84.8.

`CC/C(=C(\c1ccccc1)c1ccc(OCCN(C)C)cc1)c1ccccc1` returned a viability of 96.

Molecule `C/C1=C2/[N]3[Co+]456([OH])<-[N]7=C1[C@@H](CCC(N)=O)C(C)(C)/C7=C/C1=[N]->4C(=C(/C)C4=[N]->5[C@@](C)([C@H]3[C@H](CC(N)=O)[C@@]2(C)CCC(=O)NC[C@@H](C)OP(=O)([O-])O[C@H]2[C@@H](O)[C@@H](n3c[n]->6c5cc(C)c(C)cc53)O[C@@H]2CO)[C@@](C)(CC(N)=O)[C@@H]4CCC(N)=O)/[C@@](C)(CC(N)=O)[C@@H]1CCC(N)=O` gave a viability of 91.2.

For `O=[N+]([O-])c1cn2c(n1)OC[C@@H](OCc1ccc(OC(F)(F)F)cc1)C2`, the viability stood at 111.

`NC(=O)c1cccc(-c2cc(Nc3ccc(OC(F)(F)F)cc3)ncn2)c1` gave a viability of 117.

The molecule `CN(C)CCC=C1C2=C(C=CC=C2)\C=C/C3=C1C=CC=C3` had a viability of 115.

`Cc1c(-c2cccc3c(CCCOc4cccc5ccccc45)c(C(=O)O)n(Cc4cccnc4)c23)c(COc2ccc(N3CCN([S+](=O)([O-])N(C)C)CC3)cc2)nn1C`: the viability amounted to 90.8.

Turning to `CCCCC(C=O)NC(=O)C(CC(C)C)NC(=O)OCc1ccccc1` (stereo not drawn), the viability worked out at 82.

On to `CCCCCC[C@H]1C(=O)O[C@H](C)[C@H](NC(=O)c2cccc(NC=O)c2O)C(=O)O[C@@H](C)[C@@H]1OC(=O)CC(C)C`, for which the viability was 97.1.

`COC1=CC=C(C=C1)/C2=C(O)/C(=O)C3=C(O)C=C(O)C(=C3O2)CC=C(C)C` returned a viability of 138.

For `O=C(CCCN1CCN(c2ccc(F)cc2)CC1)NC1c2ccccc2CSc2ccccc21` (stereo not drawn), the viability turned out to be 93.5.

In turn, `CC[S+](=O)([O-])N1CC(CC#N)(n2cc(-c3ncnc4[nH]ccc34)cn2)C1` came in with a viability of 144.

`CN1CCC(=C2c3ccccc3CCc3sccc32)CC1` gave a viability of 115.

Molecule `c1ccc2c(CN3CCNCC3)cccc2c1` yielded a viability of 122.

In the case of `NC(=O)c1cccc2nc(-c3ccc([C@H]4CCCN4)cc3F)[nH]c12`, the viability was 116.

Molecule `CCOC(=O)C/1=C(C)/NC(=S)NC1C2=CC=CC(=C2)O` (stereo not drawn) had a viability of 118.

The molecule `COc1cc(C)c(Sc2cnc(NC(=O)c3ccc(CNC(C)C(C)C)cc3)s2)cc1C(=O)N1CCN(C(C)=O)CC1` (stereo not drawn) showed a viability of 85.7.

The molecule `CC1=CC=C(C=C1)N(C\C2=N\CCN2)C3=CC=CC(=C3)O` had a viability of 116.

In the case of `Cc1noc(N[S+](=O)([O-])c2ccc(N)cc2)c1C`, the viability stood at 130.

For `C=CC(=O)Nc1cc2c(Nc3ccc(F)c(Cl)c3)ncnc2cc1C#CC(C)(C)N1CCN(C)CC1`, the viability is 75.9.

Turning to `O=P1(NCCCl)OCCCN1CCCl` (stereo not drawn), the viability was 107.

`O=C([O-])[C@H](CC(=O)N1C[C@H]2CCCC[C@H]2C1)Cc1ccccc1` showed a viability of 144.

Regarding `C[C@@]12C[C@@]3(O)O[C@@H](O1)[C@]1(COC(=O)c4ccccc4)[C@H]3C[C@@]12O[C@@H]1O[C@H](CO)[C@@H](O)[C@H](O)[C@H]1O`, the viability stood at 115.

Molecule `Oc1cc(O)cc(/C=C/c2ccc(O)c(O)c2)c1` yielded a viability of 91.7.

`CCN(CC)CCN1C(=O)\C(=N/C2=CC=CC=C12)CC3=CC=C(OC)C=C3` yielded a viability of 129.

`C[C@@H]\1CC(=O)N\N=C1C2=CC=C(NN=C(C#N)C#N)C=C2` came in with a viability of 92.1.

In turn, `CC[C@@]1(O)C(=O)OC\C2=C1\C=C3/N(CC4=CC5=C(C=CC(=C5CN(C)C)O)N=C34)C2=O` displayed a viability of 66.5.

Consider `CN1CCN(c2ccc([N+](=O)[O-])c3no[n+]([O-])c23)CC1`, for which the viability came to 108.

As for `CN(C)c1ccc(O)c2c1C[C@H]1C[C@H]3[C@H](N(C)C)C(O)=C(C(N)=O)C(=O)[C@@]3(O)C(O)=C1C2=O`, the viability is 110.

The molecule `CC(=O)OCC(=O)[C@@]12\N=C(C)/O[C@@H]1C[C@H]3[C@@H]4CCC/5=C/C(=O)/C=C\[C@]5(C)[C@H]4[C@@H](O)C[C@]23C` displayed a viability of 112.

The same assay, now with this note: library / dose series: MIPE library, 11-point 1:3 dilution; top concentration 92.2 µM; 48 h.
The molecule `Cc1cn([C@H]2C=C[C@@H](CO)O2)c(=O)[nH]c1=O` displayed a viability of 92.2.

Molecule `Nc1cccc2c1CN([C@H]1CCC(=O)NC1=O)C2=O` showed a viability of 106.
